The results in this text go back to patent publication US12679878B2, “CRF2 receptor agonists and their use in therapy” (SANOFI, priority 2020, dated 2026).

pEC50: −log10 of the molar value. Converted amounts (≈) assume the structure as drawn. Where two headings read alike, the source gives them in different places. Starred links: 1 amine or outer side, 2 acyl side, 3 side chain; linkers in the order of their positions; H or OH if unused. Non-standard residues stand in square brackets, D forms with d. Residues, ends and D or L forms follow the SMILES beside them. Groups on a side chain read outwards from the residue. *: point of attachment. C16 diacid = O=C(O)CCCCCCCCCCCCCCC(=O)*; γGlu = O=C(O)[C@H](CCC(=O)[*:2])N[*:1]; Aib = CC(C)(N)C(=O)O Where only a bound is given, the exact number is not on record here.

One series concerns the target T1, human CRF2α receptor (Homo sapiens, UniProt Q13324).
T1 construct: expressed in transfected cells; host or cells: TeloHEAC
T1 sequence (Q13324 1-411): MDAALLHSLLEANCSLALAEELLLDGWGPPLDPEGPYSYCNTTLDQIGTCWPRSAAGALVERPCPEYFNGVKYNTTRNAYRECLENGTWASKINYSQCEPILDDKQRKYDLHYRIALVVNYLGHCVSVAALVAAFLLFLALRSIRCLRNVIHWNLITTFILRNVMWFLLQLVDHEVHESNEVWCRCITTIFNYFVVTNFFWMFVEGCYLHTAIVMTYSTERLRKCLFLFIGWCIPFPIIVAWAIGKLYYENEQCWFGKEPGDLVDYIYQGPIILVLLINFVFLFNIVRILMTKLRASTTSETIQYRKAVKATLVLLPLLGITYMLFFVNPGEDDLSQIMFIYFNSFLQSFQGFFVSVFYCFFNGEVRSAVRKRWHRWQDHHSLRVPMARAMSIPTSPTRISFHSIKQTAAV
Kind of series: cAMP agonism at human CRF2α receptor in TeloHEAC cells, FA modified peptides (Example 19.9). The note with it: 0% HSA, relative to urocortin 2. The series is classed as cell-based. Put shortly: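 Efficacy and EC50 are referenced to 100 nM urocortin 2 as 100%, with cAMP measured as the 665/620 nm HTRF ratio after 1 h at room temperature. Compounds (0.5 mM DMSO stock, 16 twofold dilutions) acted 30 min at 37 °C on CRF2α-expressing TeloHEAC cells, buffer containing IBMX and 0% or 0.2% HSA.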

The nature of series [1]: Buffer solubility by LC-UV, pH 7.4 phosphate and pH 4.5 acetate (Example 19.11). The series is classed as physicochemical. The note with it: target 10 mg/mL. How it is done:
(§1) As for example 15 above, also the chemical stability of representative examples of these FA modified peptides has been assessed, using LC-UV instead of light scattering. Solubility and chemical stability were studied in 100 mM phosphate buffer (pH 7.4) and 100 mM acetate buffer (pH 4.5). Test compound powders were dissolved in both buffers at a target concentration of 10 mg/mL and incubated for 1 hour at room temperature. After centrifugation at 2500 rcf for 15 minutes, […] of supernatant was diluted with […] of the incubation buffer and analyzed by LC-UV (Acquity UPLC-DAD, Waters). Solubility was calculated by comparing the peak area of the test compound in the buffer sample with the peak area of the same compound dissolved at 0.5 mg/ml in water:acetonitrile 1:1, 0.1% formic acid.

Series [2] can be described thus: In vitro plasma stability, rat plasma (Example 19.11). It counts as in vitro ADME, Sprague Dawley rats. Details: remaining at 2 h: dose or concentration left out as unconfirmed. The settings on record: 37° C.; for remaining at 2 h: male, Sprague Dawley, rat, plasma. The method, then: (§2) In vitro plasma metabolic stability was studied in male Sprague Dawley rats and human. Test compound were incubated […] for 2 hours at 37° C. At each time point (0, 0.25, 1 and 2 h), samples were prepared for analysis by means of a single step protein precipitation technique by adding 150 μL of ethanol, 0.1% formic acid to 50 μL aliquots of plasma. Samples were mixed by vortex for homogeneity and then subjected to centrifugation at 14000 rpm for 15 min. The supernatant (100 μL) was collected, diluted with 100 μL of water, 0.1% formic acid and analyzed by LC-HRMS (TripleTOF 6600+, AB Sciex). For each test compound, the area ratios at each time point were compared to the 0 h area ratio and converted to a percentage remaining.

The target in a further series is T2, CRF1R receptor (Homo sapiens, UniProt P34998).
T2 construct: host or cells: CHO-K1 clone 2
T2 sequence (P34998 24-415): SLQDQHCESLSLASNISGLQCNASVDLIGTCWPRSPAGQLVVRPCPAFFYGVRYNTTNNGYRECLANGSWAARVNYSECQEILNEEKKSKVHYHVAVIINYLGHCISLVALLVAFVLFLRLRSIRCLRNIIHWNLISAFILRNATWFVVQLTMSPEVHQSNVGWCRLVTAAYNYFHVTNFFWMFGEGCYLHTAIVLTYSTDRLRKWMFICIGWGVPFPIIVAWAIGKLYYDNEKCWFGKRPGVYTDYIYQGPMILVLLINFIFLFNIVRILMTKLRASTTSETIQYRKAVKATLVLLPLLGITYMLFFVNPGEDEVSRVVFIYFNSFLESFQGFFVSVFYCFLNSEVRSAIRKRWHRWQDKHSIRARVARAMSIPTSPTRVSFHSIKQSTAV
Kind of series: cAMP activity at anti-target CRF1R, CHO-K1 cell line clone 2 (Example 19.10). The series is classed as cell-based. The note with it: for EC50: 0% HSA, read-out: EC50 [nM] 0% HSA; for EC50 / Emax: CRF1R CHO-K1 clone 2; for Emax: 100% = Sauvagine at 100 nM; for pEC50: Table 20 side-to-side comparison, read-out: CRF1 EC50; for CRF1/CRF2 ratio: ratio of CRF1 EC50 to CRF2 EC50. The gist of the method:
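A CRF1R-overexpressing CHO-K1 line (clone 2) was grown in F12/10% FBS/G418 and frozen in aliquots before use. The cAMP assay followed the preceding procedure, with 100% activation defined by Sauvagine at 100 nM.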

Series [3] is described as follows: Chemical stability as % loss by LC-UV, 28 days 40° C. vs 5° C. (Example 19.11). It counts as physicochemical. The method, then:
as §1
From the centrifuged supernatant, two additional […] aliquots were collected and diluted with […] of incubation buffer. One aliquot was stored at 5° C., while the other was stored at 40° C. After 28 days, the samples were analyzed by LC-UV. Chemical stability was calculated as % loss using the following equations: • Chemical stability (as % loss)=[(purity after 28 days at 5° C.)−(purity after 28 days at 40° C.)]×100/(purity after 28 days at 5° C.) % purity=[(peak area compound)×100/(total peak area)]

Series [4] can be described thus: In vitro plasma stability, human plasma (Example 19.11). The series is classed as in vitro ADME. Details: dose or concentration left out as unconfirmed. The settings on record: 37° C. The method, then:
as §2

Setting [5] is: pH 7.4, 100 mM phosphate buffer.

Turning to `CC[C@H](C)[C@H](N)C(=O)N[C@H](C(=O)N[C@@H](CC(C)C)C(=O)N[C@@H](CO)C(=O)N[C@@H](CC(C)C)C(=O)N[C@@H](CC(=O)O)C(=O)N[C@@H](C(=O)N1CCC[C@H]1C(=O)N[C@H](C(=O)N[C@@H](CCCCN)C(=O)N[C@@H](CC(C)C)C(=O)N[C@@H](CCCCNC(=O)CC[C@H](NC(=O)CCCCCCCCCCCCCCC(=O)O)C(=O)O)C(=O)N[C@@H](CCC(N)=O)C(=O)N[C@H](C(=O)N[C@@H](CC(C)C)C(=O)N[C@@H](CC(C)C)C(=O)N[C@@H](CCCCN)C(=O)N[C@@H](CCC(N)=O)C(=O)N[C@@H](CCC(=O)O)C(=O)N[C@@H](CCCNC(=N)N)C(=O)N[C@@H](CCC(N)=O)C(=O)N[C@@H](CCCCN)C(=O)NC(C)(C)C(=O)N[C@@H](CCC(N)=O)C(=O)N[C@@H](CCCNC(=N)N)C(=O)N[C@@H](CCC(=O)O)C(=O)N[C@@H](CCC(N)=O)C(=O)N[C@@H](C)C(=O)N[C@@H](CCC(=O)O)C(=O)N[C@@H](CCCCN)C(=O)N[C@@H](CC(N)=O)C(=O)N[C@@H](CCCCN)C(=O)N[C@@H](CCC(N)=O)C(=O)N[C@H](C(=O)N[C@@H](CC(C)C)C(=O)N[C@@H](C)C(=O)N[C@@H](CCC(N)=O)C(=O)N[C@H](C(N)=O)C(C)C)[C@@H](C)CC)[C@@H](C)CC)[C@@H](C)CC)C(C)C)C(C)C` [compound 187] (H-IVLSLD[dV]PIKLK([γGlu-C16 diacid])QILLKQERQK[Aib]QREQAEKNKQILAQV-NH2), the EC50 was 0.44 nM at human CRF2α receptor and greater than 100 nM on CRF1R receptor. The solubility at 1 h was 8200 µg/mL (≈ 1690 µM) in series [1] (pH 4.5, 100 mM acetate buffer) and 8800 µg/mL (≈ 1810 µM) in series [1] (setting [5]). In addition, the “% remaining at 2 hours” value in series [2] (120 min) is listed as 92%. Also, the results for the share remaining at 2 h in series [2] and in series [4] were 102% and 97%, respectively. Besides, the Emax at CRF1R receptor was 43.8%. On CRF1R receptor, the pEC50 was less than 7.00. In addition, the CRF1/CRF2 ratio on CRF1R receptor was greater than 500. The “% loss (chemical stability)” value in series [3] (pH 4.5) is recorded as 0%; in series [3] (pH 7.4), 31%.

`CC[C@H](C)[C@H](N)C(=O)N[C@H](C(=O)N[C@@H](CC(C)C)C(=O)N[C@@H](CO)C(=O)N[C@@H](CC(C)C)C(=O)N[C@@H](CC(=O)O)C(=O)N[C@@H](C(=O)N1CCC[C@H]1C(=O)N[C@H](C(=O)N[C@@H](CCCCN)C(=O)N[C@@H](CC(C)C)C(=O)N[C@@H](CCCCNC(=O)CC[C@H](NC(=O)CCCCCCCCCCCCCCC(=O)O)C(=O)O)C(=O)N[C@@H](CCC(N)=O)C(=O)N[C@H](C(=O)N[C@@H](CC(C)C)C(=O)N[C@@H](CC(C)C)C(=O)N[C@@H](CCCCN)C(=O)N[C@@H](CCC(N)=O)C(=O)N[C@@H](CCC(=O)O)C(=O)N[C@@H](CCCNC(=N)N)C(=O)N[C@@H](CCC(N)=O)C(=O)N[C@@H](CCCCN)C(=O)N[C@@H](CCCCN)C(=O)NC(C)(C)C(=O)N[C@@H](CCCNC(=N)N)C(=O)N[C@@H](CCC(N)=O)C(=O)N[C@@H](CCCCN)C(=O)N[C@@H](C)C(=O)N[C@@H](CCC(=O)O)C(=O)N[C@@H](CCCCN)C(=O)N[C@@H](CC(N)=O)C(=O)N[C@@H](CCCCN)C(=O)N[C@@H](CCC(N)=O)C(=O)N[C@H](C(=O)N[C@@H](CC(C)C)C(=O)N[C@@H](C)C(=O)N[C@@H](CCC(N)=O)C(=O)N[C@H](C(N)=O)C(C)C)[C@@H](C)CC)[C@@H](C)CC)[C@@H](C)CC)C(C)C)C(C)C` [compound 189] (H-IVLSLD[dV]PIKLK([γGlu-C16 diacid])QILLKQERQKK[Aib]RQKAEKNKQILAQV-NH2; N-terminus assumed): the EC50 on human CRF2α receptor is 3.49 nM; at CRF1R receptor, greater than 100 nM. Moreover, the solubility at 1 h in series [1] (pH 4.5, 100 mM acetate buffer) is 9000 µg/mL (≈ 1860 µM); in series [1] (setting [5]), 6300 µg/mL (≈ 1300 µM). Besides, the values for the amount remaining at 2 h in series [2] and in series [4] were 101% and 97%, respectively. Also, the Emax at CRF1R receptor came out at 15%. Besides, the pEC50 at CRF1R receptor is less than 7.00. The CRF1/CRF2 ratio at CRF1R receptor is listed as greater than 500. Further, the “% loss (chemical stability)” value in series [3] (pH 4.5) was found to be 0%; in series [3] (pH 7.4), 48%.

On to `CC[C@H](C)[C@H](N)C(=O)N[C@H](C(=O)N[C@@H](CC(C)C)C(=O)N[C@@H](CO)C(=O)N[C@@H](CC(C)C)C(=O)N[C@@H](CC(=O)O)C(=O)N[C@@H](C(=O)N1CCC[C@H]1C(=O)N[C@H](C(=O)NCC(=O)N[C@@H](CC(C)C)C(=O)N[C@@H](CCCCNC(=O)CC[C@H](NC(=O)CCCCCCCCCCCCCCC(=O)O)C(=O)O)C(=O)N[C@@H](CCC(N)=O)C(=O)N[C@H](C(=O)N[C@@H](CC(C)C)C(=O)N[C@@H](CC(C)C)C(=O)N[C@@H](CCCCN)C(=O)N[C@@H](CCC(N)=O)C(=O)N[C@@H](CCC(=O)O)C(=O)N[C@@H](CCCNC(=N)N)C(=O)N[C@@H](CCC(N)=O)C(=O)N[C@@H](CCCCN)C(=O)N[C@@H](CCCCN)C(=O)NC(C)(C)C(=O)N[C@@H](CCCNC(=N)N)C(=O)N[C@@H](CCC(=O)O)C(=O)N[C@@H](CCC(N)=O)C(=O)N[C@@H](C)C(=O)N[C@@H](CCC(=O)O)C(=O)N[C@H](C(=O)N[C@@H](CC(N)=O)C(=O)N[C@@H](CCCCN)C(=O)N[C@@H](CCC(N)=O)C(=O)N[C@H](C(=O)N[C@@H](CC(C)C)C(=O)N[C@@H](C)C(=O)N[C@@H](CCC(N)=O)C(=O)N[C@H](C(N)=O)C(C)C)[C@@H](C)CC)[C@@H](C)O)[C@@H](C)CC)[C@@H](C)CC)C(C)C)C(C)C` [compound 194] (H-IVLSLD[dV]PIGLK([γGlu-C16 diacid])QILLKQERQKK[Aib]REQAETNKQILAQV-NH2; N-terminus assumed), for which the EC50 on human CRF2α receptor is 0.11 nM; on CRF1R receptor it was greater than 100 nM. Besides, the solubility at 1 h is 7300 µg/mL (≈ 1540 µM) in series [1] (pH 4.5, 100 mM acetate buffer) and 700 µg/mL (≈ 147 µM) in series [1] (setting [5]). Besides, the figures for the amount remaining at 2 h in series [2] and in series [4] were 85% and 101%, respectively. The compound further displayed an Emax on CRF1R receptor of 21.6%.

For orientation: EC50 means the midpoint of the concentration-response curve. For orientation: solubility means the concentration that dissolves in the medium under given conditions. A word on the Emax: it is the size of the effect at its maximum, as opposed to the concentration needed. One may read the pEC50 as the negative decadic logarithm of the EC50, by convention in mol/L.
